Experiment: mn = molality of the nth substance listed, in mol/kg
Settings: 100 kPa, Liquid, Mettler Toledo inLab 710

CCCCCCCCCCCC[N+](C)(C)CCCCCC[N+](C)(C)CCCCCCCCCCCC.[Br-].[Br-] + O
Settings	electrical conductivity [S/m]
308.15 K, m1 = 0.00167	0.0318
308.15 K, m1 = 0.00174	0.0325
308.15 K, m1 = 0.00182	0.0332
308.15 K, m1 = 0.0019	0.0339
308.15 K, m1 = 0.002	0.0346
313.15 K, m1 = 0.00057	0.0163
313.15 K, m1 = 0.00061	0.0171
313.15 K, m1 = 0.00065	0.0182
313.15 K, m1 = 0.00068	0.0191
313.15 K, m1 = 0.00071	0.02
313.15 K, m1 = 0.00075	0.021
313.15 K, m1 = 0.0008	0.0222
313.15 K, m1 = 0.00083	0.023
313.15 K, m1 = 0.00087	0.024
313.15 K, m1 = 0.00091	0.0248
313.15 K, m1 = 0.00095	0.0259
313.15 K, m1 = 0.001	0.0269
313.15 K, m1 = 0.00105	0.0278
313.15 K, m1 = 0.00111	0.0288
313.15 K, m1 = 0.00118	0.0299
313.15 K, m1 = 0.00125	0.0308
313.15 K, m1 = 0.00133	0.0321
313.15 K, m1 = 0.00143	0.0333
313.15 K, m1 = 0.00154	0.0347
313.15 K, m1 = 0.0016	0.0353
313.15 K, m1 = 0.00167	0.036
313.15 K, m1 = 0.00174	0.0368
313.15 K, m1 = 0.00182	0.0376
313.15 K, m1 = 0.0019	0.0384
313.15 K, m1 = 0.002	0.0392
318.15 K, m1 = 0.00057	0.0184
318.15 K, m1 = 0.00061	0.0193
318.15 K, m1 = 0.00065	0.0206
318.15 K, m1 = 0.00069	0.0222
318.15 K, m1 = 0.00074	0.0237
318.15 K, m1 = 0.0008	0.0254
318.15 K, m1 = 0.00085	0.0265
318.15 K, m1 = 0.00091	0.0281
318.15 K, m1 = 0.00095	0.0292
318.15 K, m1 = 0.001	0.0302
318.15 K, m1 = 0.00104	0.031
318.15 K, m1 = 0.00109	0.0318
318.15 K, m1 = 0.00114	0.0328
318.15 K, m1 = 0.00119	0.0337
318.15 K, m1 = 0.00125	0.0347
318.15 K, m1 = 0.00132	0.0358
318.15 K, m1 = 0.00139	0.0368
318.15 K, m1 = 0.00147	0.038
318.15 K, m1 = 0.00156	0.0393
318.15 K, m1 = 0.00167	0.0406
318.15 K, m1 = 0.00172	0.0413
318.15 K, m1 = 0.00179	0.042
318.15 K, m1 = 0.00185	0.0428
318.15 K, m1 = 0.00192	0.0437
318.15 K, m1 = 0.002	0.0446
323.15 K, m1 = 0.00065	0.022
323.15 K, m1 = 0.00069	0.0235
323.15 K, m1 = 0.00074	0.025
323.15 K, m1 = 0.0008	0.0271
323.15 K, m1 = 0.00085	0.0288
323.15 K, m1 = 0.00091	0.0305
323.15 K, m1 = 0.00095	0.0317
323.15 K, m1 = 0.001	0.0331
323.15 K, m1 = 0.00104	0.0343
323.15 K, m1 = 0.00109	0.0355
323.15 K, m1 = 0.00114	0.0367
323.15 K, m1 = 0.00119	0.038
323.15 K, m1 = 0.00125	0.0393
323.15 K, m1 = 0.00132	0.0406
323.15 K, m1 = 0.00139	0.0418
323.15 K, m1 = 0.00147	0.0433
323.15 K, m1 = 0.00156	0.0443
323.15 K, m1 = 0.00167	0.0455
323.15 K, m1 = 0.00172	0.0464
323.15 K, m1 = 0.00179	0.0473
323.15 K, m1 = 0.00185	0.0482
323.15 K, m1 = 0.00192	0.0491
323.15 K, m1 = 0.002	0.0501
